Legend:
GSPT1 = biological target: T1, GSPT1 (Homo sapiens, UniProt P15170+Q96SW2); test: GSPT1 HiBiT degradation assay in HEK293T.114 cells; type: cell-based; details: 6 hours
T1 construct: CRISPR-edited to endogenously express HiBiT tagged GSPT1; host or cells: HEK293T.114
Description: This assay evaluated the off-target degradation of the cereblon neosubstrate, Eukaryotic peptide chain release factor GTP-binding subunit ERF3A (GSPT1), induced by treatment with Compound 1 as measured by luminescence using Nano-Glo HiBiT® Lytic Assay System in 293T cells CRISPR-edited to endogenously express HiBiT tagged GSPT1.
Nano-Glo® HiBiT Lytic Assay System was purchased from Promega (Catalog No. N3050, Madison, WI, USA). HEK293T cells were obtained from ATCC (Catalog No. CRL-3216, Manassas, VA, USA), and maintained in DMEM medium (Catalog No. 11995065, ThermoFischer Scientific, Waltham, MA, USA) supplemented with 10% heat inactivated FBS (Catalog No. 16000-044, Gibco, Grand Island, NY, USA) at 37° C. in an atmosphere of 5% CO2 in air. The HiBiT polypeptide tag was introduced into the N-terminus of the endogenous GSPT1 locus by CRISPR-Cas9 to produce the HEK293T.114 modified cell line. The HiBiT polypeptide allows reconstitution of NanoBiT enzyme following cell lysis and addition of the complementing LgBiT polypeptide that activates substrate to produce a luminescent signal that is directly proportional to the amount of HiBiT-tagged GSPT1.
HEK293T.114 cells were routinely sub-cultured to maintain cell density between 30-80% confluence, not to exceed 20 passages. Cells were washed with PBS, trypsinized for 5 minutes at 37° C., and resuspended in fresh growth media without phenol red. An aliquot was diluted 2× with Trypan Blue solution 0.4% (Catalog No. 15250061, ThermoFisher Scientific, Waltham, MA, USA) and cell count determined. Cell concentration was adjusted with growth media without phenol red to 2×10^5 cells/mL.
The 10 mM DMSO stock solutions of Compound 1 or CC0885 were serially diluted (half log) in DMSO to generate 11-point dose series (10000, 3160, 1000, 316, 100, 31.6, 10, 3.2, 1, 0.32, 0.1 μM) in an acoustic ready 384-well low dead volume microplate (Catalog No. LP-0200, Beckman Coulter Life Sciences, Indianapolis, IN, USA). Using an Echo 550 Acoustic Liquid Handler (Beckman Coulter Life Sciences, Indianapolis, IN, USA), 30 nL of serially diluted compound solutions were dispensed in duplicate to each 384-well black TC-treated microplate (Catalog No. 3571, Corning, Glendale, CA, USA). 30 nL DMSO was transferred to all control wells.
30 μL of HEK293T.114 cells suspended in growth media without phenol red at 2×10^5 cells/mL (6000 cells/well) were dispensed using a Multidrop Combi Reagent Dispenser (Catalog No. 5840300, ThermoFisher Scientific, Waltham, MA, USA) to each well of columns 1-23 of 384-well black TC-treated microplates containing duplicate concentration range of test compounds and DMSO controls. 30 μL of media was dispensed to column 24 as background positive control (P). Plates were spun briefly at 1000 rpm and cells were incubated at 37° C., 5% CO2 for 6 hours. Final concentration of DMSO was 0.1% for all samples.
Cellular GSPT1 protein level was determined based on quantification of HiBiT using Nano-Glo® HiBiT Lytic Assay System (Promega). 30 μL Nano-Glo Lytic Assay reagents were added to each well of columns 1-23 and luminescence was acquired on EnVision® Multilabel Reader (Catalog No. 2104-0010, Perkin Elmer Inc., Dumfries, VA, USA). Column 24 (cells without Nano-Glo reagent addition) was used as plate background or positive control (P). Cells treated in the absence of the test compound (0.1% DMSO vehicle) were the negative control (N)/
Percent response of compound-treated samples (T) were calculated by normalizing to the DMSO treated negative (N) controls on the same microtiter plate after background (i.e., positive control) signal subtraction:
Curve fit and DC50 (concentration that degrades 50% GSPT1) determination was performed by 4 parametric logistic fit analysis using software such as GraphPad Prism software (GraphPad Software, LLC, San Diego, CA, USA). […]

[1] = Competitive water activity study; type: physicochemical
Experimental: Competitive water activity experiments at 25° C. were conducted for hydrate Pattern A and anhydrate Pattern G. Pattern A, and Pattern G, were equilibrated at 25° C. in 6 different water activities with acetone/water mixtures. Obtained suspensions were stirred at 25° C. for 3 days and 7 days. Obtained suspensions were centrifuged and obtained solids were analyzed by XRPD immediately.
Competitive water activity experiments at 25° C. were conducted for hydrate Pattern A and anhydrate Pattern M. Pattern A, and Pattern M were equilibrated at 25° C. in 6 different water activities with acetone/water mixtures. Obtained suspension was stirred at 25° C. for 3 days and 7 days. Obtained suspensions were centrifuged and obtained solids were analyzed by XRPD immediately.

[2] = Variable temperature XRPD (VT-XRPD) experiments; type: physicochemical; details: 25° C. (start)
Experimental: To investigate form conversion behavior, variable temperature XRPD experiments were conducted for hydrate Pattern A, hydrate Pattern C, hydrate Pattern F and hetero-solvate Pattern L.
Based on DSC and TGA results, variable temperature XRPD was conducted for Pattern A, at different temperatures, including 25° C., 110° C. and 25° C.
Based on DSC and TGA results, variable temperature XRPD was conducted for Pattern B, at different temperatures, including 25° C., 80° C., 130° C. and 25° C. The sample after heating-cooling was placed at 25° C./75% RH condition for 1 day and investigated by XRPD.
Based on DSC and TGA results, variable temperature XRPD was conducted for Pattern C, at different temperatures, including 25° C., 110° C. and 25° C.
Based on DSC and TGA results, variable temperature XRPD was conducted for Pattern F at different temperatures, including 25° C., 110° C. and 25° C. The sample after heating-cooling was placed at 25° C./75% RH condition for 1 day and investigated by XRPD.
Based on DSC and TGA results, variable temperature XRPD was conducted for Pattern L, at different temperatures, including 25° C., 100° C., 140° C., 180° C. and 25° C. The sample after heating-cooling was placed at 25° C./92% RH condition for 24 h and investigated by XRPD.

in vitro = details: plasma, 3 h, 2 µM
Experimental: Plasma protein binding (PPB) of Compound 1 was evaluated in plasma from mice, rats, dogs, cynomolgus monkeys, and humans using ultracentrifugation.
Frozen plasma from CD-1 mice, Sprague-Dawley rats, beagle dogs, cynomolgus monkeys, and humans was purchased and stored at ≤−30° C. On the day of study, plasma samples of CD-1 mice, Sprague-Dawley rats, beagle dogs, cynomolgus monkeys and humans were thawed under running cold tap water and centrifuged to remove any particulates.
For the internal standard, telmisartan, a 1 mg/mL solution was prepared by dissolving 1.4 mg of telmisartan in 1.4 mL of DMSO, and stored at 4° C.
The 10 mM stock solution of each test compound was used to prepare 400 μM intermediate stocks in methanol. Then, a 2 μM working stock of each test compound was prepared for plasma from each species (mouse, rat, dog, monkey, and human) by spiking 12 μL of the 400 μM intermediate stock for each test compound into 2400 μL of thawed and prepared plasma from a test species.
400 μL of blank plasma for each species was transferred to a 0.5 mL Beckman tube (Part No. 343776, Beckman Coulter Life Sciences, Indianapolis, IN, USA) and centrifuged for 3 hours at 627000×g at 37° C. The supernatant was removed and kept at room temperature.
To prepare for ultracentrifugation, the rotor of the centrifuge was placed into an incubator and warmed up to 37° C. before centrifugation. The vacuum switch of the OPTIMA™ MAX-TL Ultracentrifuge (Beckman Coulter Life Sciences, Indianapolis, IN, USA) was turned on and the vacuum was reduced to less than 10 microns to warm up the system. The ultracentrifuge's parameters were set to the following: Temperature—37° C.; Time—3 hours; and Speed—627000×g. For each species and each test compound, 2.4 mL of working stock was mixed and pre-incubated for 45 minutes at 37° C. Then, 60 μL was separated and precipitated with 200 μL of acetonitrile containing internal standard and labeled as (TO), and 0.4 mL (triplicates) were transferred to Beckman 2 mL tubes (Part No. 344625, Beckman Coulter Life Sciences, Indiana, IN, USA).
For each species and each test compound, the triplicate 0.4 mL sample tubes were centrifuged for 3 hours at 627000×g at 37° C. […] At 45 minutes, 60 μL was separated, precipitated with 200 μL of acetonitrile containing internal standard and labelled as (T45). After completion of 3 hours, 60 μL of incubated samples were separated, precipitated with acetonitrile containing internal standard, and labeled as (T3).
After completing the 3 hours of centrifugation, 30 μl of the top fraction of supernatant from each sample tube was removed (free fraction) and precipitated with acetonitrile containing internal standard (labeled as top sample).
After removing 30 μL of the top fraction, remaining top and bottom layer were mixed thoroughly to make a uniform mixture. From this mixture, 30 μL of bottom sample was collected and precipitated with acetonitrile containing internal standard (labelled as bottom sample).
Matrix matching was done for crashed stability samples (TO, T45 and T3 samples) by adding 30 μL of a 50:50 mixture of blank plasma supernatant and phosphate-buffered saline (PBS), and for top and bottom samples, by adding 30 μL of blank plasma (kept at room temperature).
All the stability samples and centrifuged samples were vortexed at 1000 rpm for 5 minutes and centrifuged at 4000 rpm for 10 minutes. Supernatant from each sample was separated, diluted 2-fold with water, and analyzed in LC-MS/MS.
Samples (supernatant-free fraction and total plasma) were analyzed by LCMS-MS (no standards).

[3] = Acetone/water (v:v = 60:40), a.w. 0.8
[4] = Acetone/water (v:v = 86:14), a.w. 0.6
[5] = Acetone/water (v:v = 95:5), a.w. 0.4
[6] = Acetone/water (v:v = 98:2), a.w. 0.2

T1 sequence (P15170 whole entry): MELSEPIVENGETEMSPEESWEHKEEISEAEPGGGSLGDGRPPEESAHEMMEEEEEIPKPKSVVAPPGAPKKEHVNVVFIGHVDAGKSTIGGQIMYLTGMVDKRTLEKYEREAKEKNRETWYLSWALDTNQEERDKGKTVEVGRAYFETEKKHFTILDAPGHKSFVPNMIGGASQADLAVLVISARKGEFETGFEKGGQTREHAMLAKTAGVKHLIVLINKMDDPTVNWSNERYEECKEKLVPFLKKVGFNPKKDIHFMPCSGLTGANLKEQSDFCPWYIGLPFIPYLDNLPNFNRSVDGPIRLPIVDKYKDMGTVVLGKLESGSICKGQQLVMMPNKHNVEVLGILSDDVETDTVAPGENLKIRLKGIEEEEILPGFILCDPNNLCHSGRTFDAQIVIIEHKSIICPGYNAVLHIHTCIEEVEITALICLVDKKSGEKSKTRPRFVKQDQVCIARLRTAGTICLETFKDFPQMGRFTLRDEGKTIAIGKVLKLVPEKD
T1 sequence (Q96SW2 whole entry): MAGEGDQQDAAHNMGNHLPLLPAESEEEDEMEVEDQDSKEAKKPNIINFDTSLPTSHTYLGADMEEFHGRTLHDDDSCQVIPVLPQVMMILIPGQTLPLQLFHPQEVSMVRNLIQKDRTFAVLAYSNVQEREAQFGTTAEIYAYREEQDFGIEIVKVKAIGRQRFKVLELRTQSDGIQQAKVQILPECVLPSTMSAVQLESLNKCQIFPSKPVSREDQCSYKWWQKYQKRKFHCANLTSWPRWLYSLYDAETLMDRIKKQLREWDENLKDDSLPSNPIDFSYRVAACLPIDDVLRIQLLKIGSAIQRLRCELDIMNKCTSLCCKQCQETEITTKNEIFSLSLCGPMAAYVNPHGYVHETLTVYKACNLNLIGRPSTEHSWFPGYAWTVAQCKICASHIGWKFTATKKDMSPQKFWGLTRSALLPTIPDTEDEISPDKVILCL
T1 sequence (Q16531 2-1140 partner limits assumed): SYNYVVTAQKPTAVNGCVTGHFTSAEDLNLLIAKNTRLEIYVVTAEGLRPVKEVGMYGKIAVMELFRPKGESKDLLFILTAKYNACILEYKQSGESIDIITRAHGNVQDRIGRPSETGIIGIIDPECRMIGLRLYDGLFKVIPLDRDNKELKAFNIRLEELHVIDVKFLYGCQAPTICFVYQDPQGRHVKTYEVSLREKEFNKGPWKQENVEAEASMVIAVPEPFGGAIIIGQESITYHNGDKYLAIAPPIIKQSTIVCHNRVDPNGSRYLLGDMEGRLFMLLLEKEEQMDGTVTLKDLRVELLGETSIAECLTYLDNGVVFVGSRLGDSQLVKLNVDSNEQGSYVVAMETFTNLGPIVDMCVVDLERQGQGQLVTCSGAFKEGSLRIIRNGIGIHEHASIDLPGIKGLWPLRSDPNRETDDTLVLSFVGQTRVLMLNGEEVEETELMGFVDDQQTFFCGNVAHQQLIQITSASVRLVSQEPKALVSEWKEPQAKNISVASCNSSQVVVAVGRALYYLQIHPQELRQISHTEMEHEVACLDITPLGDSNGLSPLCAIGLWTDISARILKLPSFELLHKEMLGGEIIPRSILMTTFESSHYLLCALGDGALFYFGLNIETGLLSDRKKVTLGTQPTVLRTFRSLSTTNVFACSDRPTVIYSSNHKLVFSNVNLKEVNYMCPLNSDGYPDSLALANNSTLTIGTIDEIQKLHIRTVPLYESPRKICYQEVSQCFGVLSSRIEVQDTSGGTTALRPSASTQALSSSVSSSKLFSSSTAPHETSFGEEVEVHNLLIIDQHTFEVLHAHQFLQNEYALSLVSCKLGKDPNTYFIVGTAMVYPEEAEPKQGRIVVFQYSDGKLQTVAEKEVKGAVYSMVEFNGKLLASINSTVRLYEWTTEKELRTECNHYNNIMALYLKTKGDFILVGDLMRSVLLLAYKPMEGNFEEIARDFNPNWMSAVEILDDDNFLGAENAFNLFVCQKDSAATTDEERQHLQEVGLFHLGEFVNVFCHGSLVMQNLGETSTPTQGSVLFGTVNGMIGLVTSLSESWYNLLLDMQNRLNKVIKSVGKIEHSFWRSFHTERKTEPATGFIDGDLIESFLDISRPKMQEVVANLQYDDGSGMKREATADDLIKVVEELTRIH

Structure (SMILES): Cc1ccc(NC(=O)NCc2ccc3c(c2)CN(C2CCC(=O)NC2=O)C3=O)cc1Cl (centres unmarked) [CC-885, reference compound]
- % GSPT1 Remaining, Mean (GSPT1; 0.100 nM): 106.2%
- % GSPT1 Remaining, Mean (GSPT1; 0.316 nM): 99.3%
- % GSPT1 Remaining, Mean (GSPT1; 1.00 nM): 96.4%
- % GSPT1 Remaining, Mean (GSPT1; 3.15 nM): 101.9%
- % GSPT1 Remaining, Mean (GSPT1; 10.0 nM): 107.2%
- % GSPT1 Remaining, Mean (GSPT1; 31.5 nM): 102.5%
- % GSPT1 Remaining, Mean (GSPT1; 100 nM): 102.6%
- % GSPT1 Remaining, Mean (GSPT1; 317 nM): 100.9%
- % GSPT1 Remaining, Mean (GSPT1; 1000 nM): 101.1%
- % GSPT1 Remaining, Mean (GSPT1; 3161 nM): 103.2%
- % GSPT1 Remaining, Mean (GSPT1; 9990 nM): 98.8%
- Mean Emax (%) ± SD (GSPT1; GSPT1-HiBiT, HEK293T.114 cells): 92.85 ± 1.30%
- DC50 (GSPT1; GSPT1-HiBiT, HEK293T.114 cells, read-out: Geometric Mean DC50): 1.93 nM
- degradation of GSPT1 induced (GSPT1; positive control): > 95%

Structure (SMILES): COc1cc(-c2cn(C)c(=O)c(C)c2C)cc(OC)c1CN1CC[C@H](N2CCN(c3ccc(N[C@H]4CCC(=O)NC4=O)cc3F)CC2)C(F)(F)C1 [Pattern A and Pattern G]
- XRPD-3 days ([1]; Acetone, a.w. 0.0): Pattern B
- XRPD-7 days ([1]; Acetone, a.w. 0.0): Pattern N
- XRPD-3 days [1, 3]: Pattern K
- XRPD-7 days [1, 3]: Pattern K
- XRPD-3 days [1, 4]: Pattern B
- XRPD-7 days [1, 4]: Pattern B
- XRPD-3 days [1, 5]: Pattern B
- XRPD-7 days [1, 5]: Pattern N
- XRPD-3 days [1, 6]: Pattern B
- XRPD-7 days [1, 6]: Pattern N
- XRPD-7 days ([1]; Water, a.w. 1.0): Pattern K

Structure (SMILES): COc1cc(-c2cn(C)c(=O)c(C)c2C)cc(OC)c1CN1CC[C@H](N2CCN(c3ccc(N[C@H]4CCC(=O)NC4=O)cc3F)CC2)C(F)(F)C1 [Pattern A and Pattern M]
- XRPD-3 days ([1]; Acetone, a.w. 0.0): Pattern N
- XRPD-7 days ([1]; Acetone, a.w. 0.0): Pattern N
- XRPD-3 days [1, 3]: Pattern K
- XRPD-7 days [1, 3]: Pattern A
- XRPD-3 days [1, 4]: Pattern N
- XRPD-7 days [1, 4]: Pattern N
- XRPD-3 days [1, 5]: Pattern N
- XRPD-7 days [1, 5]: Pattern N
- XRPD-3 days [1, 6]: Pattern N
- XRPD-7 days [1, 6]: Pattern N
- XRPD-3 days ([1]; Water, a.w. 1.0): Pattern K
- XRPD-7 days ([1]; Water, a.w. 1.0): Pattern A

Structure (SMILES): COc1cc(-c2cn(C)c(=O)c(C)c2C)cc(OC)c1CN1CC[C@H](N2CCN(c3ccc(N[C@H]4CCC(=O)NC4=O)cc3F)CC2)C(F)(F)C1 [Pattern A, Pattern C, Pattern D, and Pattern E]
- XRPD-7 days ([1]; Acetone, a.w. 0.0): Pattern B
- XRPD-7 days ([1]; Acetone/water (v:v = 36:64), a.w. 0.9): Pattern K
- XRPD-7 days ([1]; Acetone/water (v:v = 76:24), a.w. 0.7): Pattern K
- XRPD-7 days ([1]; Acetone/water (v:v = 92:8), a.w. 0.5): Pattern B
- XRPD-7 days ([1]; Acetone/water (v:v = 97:30), a.w. 0.3): Pattern B
- XRPD-7 days ([1]; Acetone/water (v:v = 99.5:0.5), a.w. 0.1): Pattern B
- XRPD-7 days ([1]; Water, a.w. 1.0): Pattern K

Structure (SMILES): COc1cc(-c2cn(C)c(=O)c(C)c2C)cc(OC)c1CN1CC[C@H](N2CCN(c3ccc(N[C@H]4CCC(=O)NC4=O)cc3F)CC2)C(F)(F)C1 [Pattern B]
- XRPD [2]: Pattern B

Structure (SMILES): CC(=O)CC(c1ccccc1)c1c(O)c2ccccc2oc1=O (centres unmarked) [Warfarin, reference compound]
- % Remaining at 3 hours (in vitro; CD-1, mouse): 107.21%
- % Remaining at 3 hours (in vitro; Sprague-Dawley, rat): 88.82%
- % Remaining at 3 hours (in vitro; beagle, dog): 111.42%
- % Remaining at 3 hours (in vitro; human): 91.67%
- % Remaining at 3 hours (in vitro; monkey): 115.61%
